Data from paper PMC7395068, “The evolution of strategies to minimise the risk of human drug-induced liver injury (DILI) in drug discovery and development” (Archives of Toxicology, 2020).
Where two headings read alike, the source gives them in different places.

Legend:
HepG2 cells [1] = conditions: cited from earlier work
HepG2 = system: HepG2; design: method as in Albrecht 2019; conditions: In vitro Assay; ref Albrecht 2019; cited from earlier work
[2] = cited from earlier work
HepG2 cells [3] = conditions: cited from earlier work; remark: listed apart in the source
[4] = system: primary human hepatocytes, NIH3T3 fibroblasts, BSEP, CYP3A4; conditions: cited from earlier work; for DILI in vitro assay prediction, Schadt (2015): BSEP & Metabolism based, ref Schadt et al. 2015
PHH [5] = conditions: cited from earlier work
HepG2 cells [6] = conditions: cited from earlier work; remark: listed apart in the source
[7] = Plasma free fraction (fu) and unbound Cmax (Cmax,u); format: in vitro ADME, human; conditions: unbound plasma Cmax
Protocol: The prediction of DILI severity was evaluated further using the 3D combined HCI assays using plasma-free fraction. The majority of fu values were obtained from literature, when unavailable in-house prediction was utilised. Unbound plasma Cmax concentrations (Cmax,u) were derived by multiplying total plasma Cmax with the corresponding free fraction (fu) for each compound.

PHH 3D spheroids = system: PHH 3D spheroids; design: method as in Bell et al. 2018; conditions: 14-day exposure, three donors, ref Bell et al. 2018; cited from earlier work
hLiMTs [8] = conditions: cited from earlier work
RMPCC's = conditions: In vitro Assay; ref Khetani 2012; cited from earlier work
[9] = plasma free fraction; cited from earlier work
hLiMTs [10] = test: Combined HCI (HCS) and cellular ATP 3D assay in hLiMTs; conditions: for AC50 / minimal effective concentration: Homo sapiens; for DILI prediction hLiMTs (HCS-MEC): Microtissue model structural based (HCI), combined HCS and ATP, MEC < 25 × Cmax.tot cut-off; for hLiMTs <25x Avg Cmax ATP / hLiMTs <100x Avg Cmaxu ATP: ATP endpoint; for hLiMTs <25x Avg Cmax ATP / hLiMTs <25x Avg Cmax HCS / hLiMTs <25x Avg Cmax All: cut-off <25x Avg Cmax; for hLiMTs <100x Avg Cmaxu ATP / hLiMTs <100x Avg Cmaxu HCS / hLiMTs <100x Avg Cmaxu All: cut-off <100x Avg Cmaxu; for hLiMTs <25x Avg Cmax HCS / hLiMTs <100x Avg Cmaxu HCS: HCS endpoints; for hLiMTs <25x Avg Cmax All: all endpoints (ATP and HCS); for hLiMTs Cmax max All / hLiMTs Cmax min All / hLiMTs <10 uM All / hLiMTs <100x Avg Cmaxu All: all endpoints; for hLiMTs Cmax max All: Cmax max used; for hLiMTs Cmax min All: Cmax min used; for hLiMTs <10 uM All: cut-off <10 uM
Protocol: 3D spheroid models consisting of either primary human hepatocytes with non-parenchymal cells (hLiMT’s) or HepaRG cells (HepaRG spheroids) were assessed for size (MS), oxidative stress (OS), MMP, mitochondrial mass (MM), GSH and cellular ATP content following drug exposure. Fluorescent images are acquired using the confocal mode of an ArrayScan™ XTI HCI reader (ThermoScientific) following which cellular ATP was measured using 3D CellTiter-Glo (Promega).

[11] = read-out: Human plasma Cmax; total plasma Cmax.tot, median of 9 literature references; cited from earlier work
[12] = system: THLE or HepG2 cells, isolated mitochondria, BSEP; conditions: cited from earlier work
[13] = system: THLE-Null and THLE-3A4 cells; conditions: In vitro Assay; ref Gustafsson 2014; cited from earlier work
HepaRG spheroids = test: Combined HCI (HCS) and cellular ATP 3D assay in HepaRG spheroids; conditions: for HepaRG <25x Avg Cmax ATP / HepaRG <100x Avg Cmaxu ATP: ATP endpoint; for HepaRG <25x Avg Cmax ATP / HepaRG <25x Avg Cmax HCS / HepaRG <25x Avg Cmax All: cut-off <25x Avg Cmax; for HepaRG <100x Avg Cmaxu ATP / HepaRG <100x Avg Cmaxu HCS / HepaRG <100x Avg Cmaxu All: cut-off <100x Avg Cmaxu; for HepaRG <25x Avg Cmax HCS / HepaRG <100x Avg Cmaxu HCS: HCS endpoints; for HepaRG <25x Avg Cmax All: all endpoints (ATP and HCS); for HepaRG Cmax max All / HepaRG Cmax min All / HepaRG <10 uM All / HepaRG <100x Avg Cmaxu All: all endpoints; for HepaRG Cmax max All: Cmax max used; for HepaRG Cmax min All: Cmax min used; for HepaRG <10 uM All: cut-off <10 uM; for AC50 / minimal effective concentration: Homo sapiens; for HepaRG <25x Avg Cmax ATP / HepaRG <100x Avg Cmaxu ATP / HepaRG <25x Avg Cmax HCS / HepaRG <100x Avg Cmaxu HCS / HepaRG <25x Avg Cmax All / HepaRG Cmax max All / HepaRG Cmax min All / HepaRG <10 uM All / HepaRG <100x Avg Cmaxu All / AC50 / minimal effective concentration: HepaRG; for DILI prediction HepaRG spheroids (HCS-MEC): Microtissue model structural based (HCI), combined HCS and ATP, MEC < 25 × Cmax.tot cut-off
PHH [14] = conditions: In vitro Assay; ref Albrecht 2019; cited from earlier work
[15] = cited from earlier work; remark: listed apart in the source
human hepatocytes = conditions: cited from earlier work
[16] = in vivo; cited from earlier work
[17] = system: isolated mouse liver mitochondria; conditions: In vitro Assay; ref Porceddu 2012; cited from earlier work
PHH spheroids = conditions: cited from earlier work
hu-MPCC = conditions: In vitro Assay; ref Khetani 2012; cited from earlier work
[18] = system: HepG2 C3A spheroid, BSEP, Glu/Gal in HepG2 cells, bioactivation; conditions: Bayesian modeling; ref Williams et al. 2019; cited from earlier work
OATP1B1 = conditions: known substrates; cited from earlier work
[19] = In vitro Assay, ref Schadt 2015
[20] = In vitro Assay, ref Proctor 2017
[21] = HCS endpoints only, 25 × Cmax.tot cut-off
[22] = Modeled in vitro assays (cytotoxicity, mitochondrial dysfunction, BSEP), ref Aleo et al. 2019

## O=C(O)Cc1ccccc1Nc1c(Cl)cccc1Cl [diclofenac]
HepG2 cells [1]; In vitro Assay, ref O'Brien 2006
  Structural based (HCI): +VE
HepG2 cells [1]
  DILI in vitro assay prediction, O'Brien (2006): +VE (key: +VE: lowest HCI endpoint IC50 (or in the absence of dose–response < 100 µM) < 30 × total human plasma exposure levels (Cmax.tot))
HepG2
  Cytotoxicity HepG2 48 hrs: +VE
[2]; in vivo
  Assigned DILI category: 3
  In vivo DILI: +VE
HepG2 cells [3]; In vitro Assay, ref Persson 2013
  Structural based (HCI): -VE
HepG2 cells [3]
  Cluser analysis: -VE
  DILI in vitro assay prediction, Persson (2013): -VE
[4]
  DILI in vitro assay prediction, Schadt (2015): +VE
[4]; [19]
  Cellular toxicity (3T3 cells): -VE
  Combined Assay: +VE
  GSH adduct HML: +VE
  Hepatocyte cellular toxicity: -VE
  MitoTox 3T3: -VE
  TDI CYP3A4: -VE
  hBSEP inhibition: -VE
PHH [5]; 2D PHH, ATP, IC50 threshold 100 µM, ref Proctor et al. 2017
  PHH/100uM, Proctor (2017): -VE
PHH [5]; [20]
  PHH ATP <100uM: -VE
HepG2 cells [6]; In vitro Assay, ref Tolosa 2012
  Structural based (HCI): +VE
HepG2 cells [6]
  DILI in vitro assay prediction, Tolosa (2012): +VE
[7]
  Human plasma Cmax,u: 0.101 µM
PHH 3D spheroids
  detection at 10 × Cmax.tot cut-off: only detected by one of three donors
hLiMTs [8]; [20]
  hLiMTs ATP <100uM: +VE (IC50 threshold of 100 µM)
hLiMTs [8]; hLiMTs, ATP, IC50 threshold 100 µM, ref Proctor et al. 2017
  hLiMTs/100uM, Proctor (2017): +VE (IC50 threshold of 100 µM)
RMPCC's
  RMPCC's: +VE
[9]
  fu: 0.010
hLiMTs [10]; read-out: ATP endpoint AC50
  AC50: 62.1 µM
hLiMTs [10]; read-out: ATP endpoint MEC
  minimal effective concentration: 17.2 µM
hLiMTs [10]; read-out: HCS endpoint AC50
  AC50: 293 µM
hLiMTs [10]; read-out: HCS endpoint MEC
  minimal effective concentration: 45 µM
hLiMTs [10]
  DILI prediction hLiMTs (HCS-MEC): +VE (MEC < 25 × Cmax.tot cut-off)
  hLiMTs <25x Avg Cmax ATP: +ve
  hLiMTs <100x Avg Cmaxu ATP: -ve
  hLiMTs <25x Avg Cmax HCS: +ve
  hLiMTs <100x Avg Cmaxu HCS: -ve
  hLiMTs <25x Avg Cmax All: +ve
  hLiMTs Cmax max All: +ve
  hLiMTs Cmax min All: +ve
  hLiMTs <10 uM All: -ve
  hLiMTs <100x Avg Cmaxu All: -ve
[11]
  Cmax: 10.1 µM
[12]
  Ro2 Hybrid HRM Score: +VE
[13]
  THLE-Null: +VE
HepaRG spheroids
  HepaRG <25x Avg Cmax ATP: +ve
  HepaRG <100x Avg Cmaxu ATP: -ve
  HepaRG <25x Avg Cmax HCS: +ve
  HepaRG <100x Avg Cmaxu HCS: -ve
  HepaRG <25x Avg Cmax All: +ve
  HepaRG Cmax max All: +ve
  HepaRG Cmax min All: +ve
  HepaRG <10 uM All: -ve
  HepaRG <100x Avg Cmaxu All: -ve
  DILI prediction HepaRG spheroids (HCS-MEC): +VE (MEC < 25 × Cmax.tot cut-off)
HepaRG spheroids; read-out: ATP endpoint AC50
  AC50: 78 µM
HepaRG spheroids; read-out: ATP endpoint MEC
  minimal effective concentration: 38.2 µM
HepaRG spheroids; read-out: HCS endpoint AC50
  AC50: 98.6 µM
HepaRG spheroids; read-out: HCS endpoint MEC
  minimal effective concentration: 42.9 µM
PHH [14]
  Cytotoxicity PHH 48 hrs: +VE
[15]; in vivo
  DILI +VE (5-8), DILI -VE (-4): +VE
  DILI severity category (Chen et al. [2016]): Most
Human hepatocytes
  DILI in vitro assay prediction, Xu (2008): +VE
[16]
  DILI Score (FDA) (1-8): 7
[17]
  in vitro data EC2<=1x Cmax: +VE
PHH spheroids; In vitro Assay, ref Vorrink 2018
  hLiMTs ATP <20 x Cmax: +VE (IC20 < 20 × Cmax.tot cut-off)
PHH spheroids
  DILI in vitro assay prediction, Vorrink (2018): +VE (key: +VE: IC20 < 20 × Cmax.tot cut-off)
hu-MPCC
  HMPCC's: +VE

## Cc1cc2c(cc1CC(=O)c1sccc1S(=O)(=O)Nc1onc(C)c1Cl)OCO2 [sitaxsentan]
[2]; Chen et al. 2016 or literature alignment, ref Chen et al. 2016
  Assigned DILI category: 3
[4]
  DILI in vitro assay prediction, Schadt (2015): +VE
[18]
  Bayesian Machine Learning DILI prediction, Williams (2019): +VE
[7]
  Human plasma Cmax,u: 0.126 µM
hLiMTs [8]; hLiMTs, ATP, IC50 < 100 × Cmax.tot, ref Proctor et al. 2017
  hLiMTs/100xCmax, Proctor (2017): +VE (IC50 < 100 × Cmax.tot)
[9]
  fu: 0.005
hLiMTs [10]; [21]
  DILI prediction hLiMTs, HCI alone: detection
hLiMTs [10]; read-out: HCS endpoint MEC
  minimal effective concentration: 130 µM
hLiMTs [10]
  DILI prediction hLiMTs (HCS-MEC): +VE (MEC < 25 × Cmax.tot cut-off)
  hLiMTs <25x Avg Cmax ATP: -ve
  hLiMTs <100x Avg Cmaxu ATP: -ve
  hLiMTs <25x Avg Cmax HCS: +ve
  hLiMTs <100x Avg Cmaxu HCS: -ve
  hLiMTs <25x Avg Cmax All: +ve
  hLiMTs Cmax max All: +ve
  hLiMTs Cmax min All: +ve
  hLiMTs <10 uM All: -ve
  hLiMTs <100x Avg Cmaxu All: -ve
hLiMTs [10]; cellular ATP only, 25 × Cmax.tot cut-off
  DILI prediction hLiMTs, ATP alone: unpredicted
[11]
  Cmax: 25.3 µM
OATP1B1
  substrate for hepatic uptake transporter OATP1B1: known substrates
[12]; [22]
  Partition Hybrid HRM Score ≥4, Aleo (2019): +VE (Partition Hybrid HRM Score ≥4)
  Partition Hybrid HRM Score ≥8, Aleo (2019): +VE (Partition Hybrid HRM Score ≥8)
  Rule of Two hybrid HRM Score ≥3, Aleo (2019): +VE (Rule of Two hybrid HRM Score ≥3)
  Rule of Two hybrid HRM Score ≥8, Aleo (2019): +VE (Rule of Two hybrid HRM Score ≥8)
HepaRG spheroids; [21]
  DILI prediction HepaRG spheroids, HCI alone: positive
HepaRG spheroids
  HepaRG <25x Avg Cmax ATP: -ve
  HepaRG <100x Avg Cmaxu ATP: -ve
  HepaRG <25x Avg Cmax HCS: +ve
  HepaRG <100x Avg Cmaxu HCS: +ve (<100x Avg Cmaxu)
  HepaRG <25x Avg Cmax All: +ve
  HepaRG Cmax max All: +ve
  HepaRG Cmax min All: +ve
  HepaRG <10 uM All: +ve (<10 uM)
  HepaRG <100x Avg Cmaxu All: +ve (<100x Avg Cmaxu)
  DILI prediction HepaRG spheroids (HCS-MEC): +VE (MEC < 25 × Cmax.tot cut-off)
HepaRG spheroids; read-out: HCS endpoint AC50
  AC50: 9.74 µM
HepaRG spheroids; read-out: HCS endpoint MEC
  minimal effective concentration: 8.53 µM
[15]; LTKB DILIrank category, ref Chen et al. 2016
  DILI severity category (Chen et al. [2016]): Most
[15]; human DILI classification, LTKB DILIrank, ref Chen et al. 2016
  DILI severity category (Chen 2016): Most
[15]; human DILI severity, ref Chen et al.
  DILI severity category: Most
